Tests used:
NCI-H226 = assay: NCI sixty human tumor cell line screen, Non-small-cell-lung panel; type: cell-based; conditions: NCI protocol
Experimental: (§1) The in vitro anticancer activity studies for these N-((1-benzyl-1H-1,2,3-triazol-4-yl)methyl) arylamide analogues were carried out at the National Cancer Institute, USA.
(§2) The N-((1-benzyl-1H-1,2,3-triazol-4-yl)methyl)arylamide analogues have been tested at NCI, USA, against sixty human tumor cell lines derived from nine cancer types (leukemia, non-small cell lung cancer, colon cancer, CNS cancer, melanoma cancer, ovarian cancer, renal cancer, prostate cancer and breast cancer). For these compounds results are expressed as growth inhibition (GI50) values as per NCI protocol.

HOP-62 = assay: as above; type: cell-based; conditions: HOP-62, Non-small-cell-lung, NCI protocol
Experimental: as §1, §2

NCI-H522 = assay: as above; type: cell-based; conditions: NCI protocol
Experimental: as §1, §2

NCI-H460 = assay: as above; type: cell-based; conditions: NCI protocol
Experimental: as §1, §2

EKVX = assay: as above; type: cell-based; conditions: NCI protocol
Experimental: as §1, §2

A549/ATCC = assay: as above; type: cell-based; conditions: NCI protocol
Experimental: as §1, §2

SW-620 = assay: NCI sixty human tumor cell line screen, Colon panel; type: cell-based; conditions: SW-620, Colon, NCI protocol
Experimental: as §1, §2

HCT-116 = assay: as above; type: cell-based; conditions: HCT-116, Colon, NCI protocol
Experimental: as §1, §2

KM12 = assay: as above; type: cell-based; conditions: NCI protocol
Experimental: as §1, §2

COLO 205 = assay: as above; type: cell-based; conditions: COLO 205, Colon, NCI protocol
Experimental: as §1, §2

HT29 = assay: as above; type: cell-based; conditions: HT-29, NCI protocol
Experimental: as §1, §2

RXF 393 = assay: NCI sixty human tumor cell line screen, Renal panel; type: cell-based; conditions: RXF 393, Renal, NCI protocol
Experimental: as §1, §2

TK-10 = assay: as above; type: cell-based; conditions: TK-10, Renal, NCI protocol
Experimental: as §1, §2

UO-31 = assay: as above; type: cell-based; conditions: UO-31, Renal, NCI protocol
Experimental: as §1, §2

CAKI-1 = assay: as above; type: cell-based; conditions: CAKI-1, Renal, NCI protocol
Experimental: as §1, §2

A498 = assay: as above; type: cell-based; conditions: NCI protocol
Experimental: as §1, §2

ACHN = assay: as above; type: cell-based; conditions: NCI protocol
Experimental: as §1, §2

SN12C = assay: as above; type: cell-based; conditions: NCI protocol
Experimental: as §1, §2

OVCAR-3 = assay: NCI sixty human tumor cell line screen, Ovarian panel; type: cell-based; conditions: OVCAR-3, Ovarian, NCI protocol
Experimental: as §1, §2

OVCAR-4 = assay: as above; type: cell-based; conditions: OVCAR-4, Ovarian, NCI protocol
Experimental: as §1, §2

NCI/ADR-RES = assay: as above; type: cell-based; conditions: NCI protocol
Experimental: as §1, §2

OVCAR-8 = assay: as above; type: cell-based; conditions: OVCAR-8, Ovarian, NCI protocol
Experimental: as §1, §2

SK-OV-3 = assay: as above; type: cell-based; conditions: SK-OV-3, Ovarian, NCI protocol
Experimental: as §1, §2

DU-145 = assay: NCI sixty human tumor cell line screen, Prostate panel; type: cell-based; conditions: DU-145, Prostate, NCI protocol
Experimental: as §1, §2

PC-3 = assay: as above; type: cell-based; conditions: PC-3, Prostate, NCI protocol
Experimental: as §1, §2

SF-539 = assay: NCI sixty human tumor cell line screen, CNS panel; type: cell-based; conditions: SF-539, CNS, NCI protocol
Experimental: as §1, §2

SNB-19 = assay: NCI sixty human tumor cell line screen, CNS panel; type: cell-based; conditions: SNB-19, CNS, NCI protocol
Experimental: as §1, §2

SNB-75 = assay: NCI sixty human tumor cell line screen, CNS panel; type: cell-based; conditions: SNB-75, CNS, NCI protocol
Experimental: as §1, §2

U251 = assay: NCI sixty human tumor cell line screen, CNS panel; type: cell-based; conditions: U-251, NCI protocol
Experimental: as §1, §2

SF-295 = assay: NCI sixty human tumor cell line screen, CNS panel; type: cell-based; conditions: SF-295, CNS, NCI protocol
Experimental: as §1, §2

SF-268 = assay: NCI sixty human tumor cell line screen, CNS panel; type: cell-based; conditions: SF-268, CNS, NCI protocol
Experimental: as §1, §2

BT-549 = assay: NCI sixty human tumor cell line screen, Breast panel; type: cell-based; conditions: BT-549, Breast, NCI protocol
Experimental: as §1, §2

MDA-MB-468 = assay: as above; type: cell-based; conditions: MDA-MB-468, Breast, NCI protocol
Experimental: as §1, §2

T-47D = assay: as above; type: cell-based; conditions: T47D, NCI protocol
Experimental: as §1, §2

MDA-MB-31/ATCC = assay: as above; type: cell-based; conditions: NCI protocol
Experimental: as §1, §2

HS 578T = assay: as above; type: cell-based; conditions: NCI protocol
Experimental: as §1, §2

SK-MEL-28 = assay: NCI sixty human tumor cell line screen, Melanoma panel; type: cell-based; conditions: SK-MEL-28, Melanoma, NCI protocol
Experimental: as §1, §2

M14 = assay: as above; type: cell-based; conditions: NCI protocol
Experimental: as §1, §2

LOX IMVI = assay: as above; type: cell-based; conditions: NCI protocol
Experimental: as §1, §2

MDA-MB-435 = assay: as above; type: cell-based; conditions: MDA-MB-435, Melanoma, NCI protocol
Experimental: as §1, §2

UACC-62 = assay: as above; type: cell-based; conditions: UACC-62, Melanoma, NCI protocol
Experimental: as §1, §2

SK-MEL-5 = assay: as above; type: cell-based; conditions: SK-MEL-5, Melanoma, NCI protocol
Experimental: as §1, §2

SK-MEL-2 = assay: as above; type: cell-based; conditions: SK-MEL-2, Melanoma, NCI protocol
Experimental: as §1, §2

COc1ccc(Nc2ncccc2C(=O)NCc2cn(Cc3cccc(Oc4ccccc4)c3)nn2)c(OC)c1 [Compound 1g, 2-(2,4-Dimethoxyphenylamino)-N-((1-(3-phenoxybenzyl)-1H-1,2,3-triazol-4-yl)methyl) nicotinamide]
GI50 (NCI-H226): 2.24 µM
GI50 (HOP-62): 12.7 µM
GI50 (NCI-H522): 1.82 µM
GI50 (NCI-H460): 3.05 µM
GI50 (EKVX): 5.09 µM
GI50 (A549/ATCC): 4.15 µM
GI50 (SW-620): 2.12 µM
GI50 (HCT-116): 3.08 µM
GI50 (KM12): 1.65 µM
GI50 (COLO 205): 2.14 µM
GI50 (HT29): 3.26 µM
GI50 (RXF 393): 7.83 µM
GI50 (TK-10): 3.14 µM
GI50 (UO-31): 8.06 µM
GI50 (CAKI-1): 1.71 µM
GI50 (A498): 1.01 µM
GI50 (ACHN): 4.83 µM
GI50 (SN12C): 1.71 µM
GI50 (OVCAR-3): 1.54 µM
GI50 (OVCAR-4): 5.11 µM
GI50 (NCI/ADR-RES): 2.12 µM
GI50 (OVCAR-8): 4.1 µM
GI50 (SK-OV-3): 2.59 µM
GI50 (DU-145): 3.37 µM
GI50 (PC-3): 0.62 µM
GI50 (SF-539): 2.65 µM
GI50 (SNB-19): 3.33 µM
GI50 (SNB-75): 3.41 µM
GI50 (U251): 3.6 µM
GI50 (SF-295): 0.56 µM
GI50 (SF-268): 3.88 µM
melting point: 127 to 129 °C
GI50 (BT-549): 3.51 µM
GI50 (MDA-MB-468): 1.46 µM
GI50 (T-47D): 4.28 µM
GI50 (MDA-MB-31/ATCC): 5.54 µM
GI50 (HS 578T): 2.94 µM
GI50 (SK-MEL-28): 2.6 µM
GI50 (M14): 2.13 µM
GI50 (LOX IMVI): 3.01 µM
GI50 (MDA-MB-435): 0.25 µM
GI50 (UACC-62): 1.43 µM
GI50 (SK-MEL-5): 0.72 µM
GI50 (SK-MEL-2): 7.67 µM

O=C(NCc1cn(Cc2cccc(Oc3ccccc3)c2)nn1)c1cccnc1NCc1ccc(Cl)cc1 [Compound 1k, 2-(4-Chlorobenzylamino)-N-((1-(3-phenoxybenzyl)-1H-1,2,3-triazol-4-yl)methyl) nicotinamide]
GI50 (NCI-H226): 3.66 µM
GI50 (HOP-62): 5.69 µM
GI50 (NCI-H522): 2.18 µM
GI50 (NCI-H460): 2.85 µM
GI50 (EKVX): 3.65 µM
GI50 (A549/ATCC): 3.21 µM
GI50 (SW-620): 4.04 µM
GI50 (HCT-116): 3.18 µM
GI50 (KM12): 3.62 µM
GI50 (COLO 205): 2.18 µM
GI50 (HT29): 2.96 µM
GI50 (RXF 393): 2.19 µM
GI50 (TK-10): 3.7 µM
GI50 (UO-31): 3 µM
GI50 (CAKI-1): 4.36 µM
GI50 (A498): 2.12 µM
GI50 (ACHN): 4.03 µM
GI50 (SN12C): 3.44 µM
GI50 (OVCAR-3): 3.48 µM
GI50 (OVCAR-4): 3.37 µM
GI50 (NCI/ADR-RES): 2.86 µM
GI50 (OVCAR-8): 3.63 µM
GI50 (SK-OV-3): 3.32 µM
GI50 (DU-145): 4 µM
GI50 (PC-3): 2.96 µM
GI50 (SF-539): 2.24 µM
GI50 (SNB-19): 3.91 µM
GI50 (SNB-75): 2.02 µM
GI50 (U251): 2.66 µM
GI50 (SF-295): 2.8 µM
GI50 (SF-268): 4.82 µM
melting point: 209 to 211 °C
GI50 (BT-549): 2.72 µM
GI50 (MDA-MB-468): 3.44 µM
GI50 (T-47D): 3.2 µM
GI50 (MDA-MB-31/ATCC): 2.29 µM
GI50 (HS 578T): 2.72 µM
GI50 (SK-MEL-28): 2.95 µM
GI50 (M14): 2.49 µM
GI50 (LOX IMVI): 3.9 µM
GI50 (MDA-MB-435): 2.33 µM
GI50 (UACC-62): 2.08 µM
GI50 (SK-MEL-5): 2.53 µM
GI50 (SK-MEL-2): 4.44 µM
